# Laboratory results reported in publication PMC9927415, “Tyrosine Kinase Inhibitors Display Potent Activity against Cryptosporidium parvum” (Microbiology Spectrum, 2022).
# Key:
# HepG2 cells = assay: Host cell cytotoxicity assay (CellTiter-Glo); conditions: HepG2 CC50/C. parvum EC50
# Experimental: HepG2 cells were grown in Eagle’s Minimum Essential Medium (MEM) containing 10% FBS, 1% nonessential amino acids (NEAA) and 1% penicillin/streptomycin to >50% confluence prior to harvesting. Cells were suspended in media and 3000 cells per well were added onto 384-well clear bottom plates. Prior to addition of the cell suspension, the screening compounds (250 nl) were predispensed into plates using a liquid handler. Plates were incubated for 48 h at 37°C, 5% CO2. After 48 h of incubation, plates were equilibrated at room temperature for 30 min before luminescence signal was measured using CellTiter-Glo Reagent. Plates were kept at room temperature for 10 min to stabilize the signal and then read using a ViewLux luminescence reader. The HepG2 CC50 (from the host cell cytotoxicity assays) and C. parvum mean EC50 (from parasite growth inhibition assays) values were used to calculate selectivity index.
# PCTK1 = target: T1, PCTK1 (Homo sapiens, UniProt Q00536); assay: KINOMEscan competitive binding; conditions: n=1, read-out: Percent inhibition, PCTK1
# T1 construct: purchased DiscoverX (KINOMEscan)
# T1 sequence (Q00536 whole entry): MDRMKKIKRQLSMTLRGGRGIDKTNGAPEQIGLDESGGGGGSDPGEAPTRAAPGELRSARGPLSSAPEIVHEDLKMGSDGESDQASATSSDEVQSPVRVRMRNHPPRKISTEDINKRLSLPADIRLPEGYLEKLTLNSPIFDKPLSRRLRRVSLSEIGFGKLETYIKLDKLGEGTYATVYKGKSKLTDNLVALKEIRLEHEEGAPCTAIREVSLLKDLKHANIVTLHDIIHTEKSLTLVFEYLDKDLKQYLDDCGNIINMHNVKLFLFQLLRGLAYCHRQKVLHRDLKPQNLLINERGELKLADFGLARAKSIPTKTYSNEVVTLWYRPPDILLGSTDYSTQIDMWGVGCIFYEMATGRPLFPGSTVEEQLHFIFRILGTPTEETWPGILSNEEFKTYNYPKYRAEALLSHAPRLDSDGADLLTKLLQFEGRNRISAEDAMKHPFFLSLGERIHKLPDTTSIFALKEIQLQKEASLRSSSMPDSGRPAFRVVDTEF
# PLK4 = target: T2, PLK4 (Homo sapiens, UniProt O00444); assay: KINOMEscan competitive binding; conditions: n=1, read-out: Percent inhibition, PLK4
# T2 construct: purchased DiscoverX (KINOMEscan)
# T2 sequence (O00444 1-970): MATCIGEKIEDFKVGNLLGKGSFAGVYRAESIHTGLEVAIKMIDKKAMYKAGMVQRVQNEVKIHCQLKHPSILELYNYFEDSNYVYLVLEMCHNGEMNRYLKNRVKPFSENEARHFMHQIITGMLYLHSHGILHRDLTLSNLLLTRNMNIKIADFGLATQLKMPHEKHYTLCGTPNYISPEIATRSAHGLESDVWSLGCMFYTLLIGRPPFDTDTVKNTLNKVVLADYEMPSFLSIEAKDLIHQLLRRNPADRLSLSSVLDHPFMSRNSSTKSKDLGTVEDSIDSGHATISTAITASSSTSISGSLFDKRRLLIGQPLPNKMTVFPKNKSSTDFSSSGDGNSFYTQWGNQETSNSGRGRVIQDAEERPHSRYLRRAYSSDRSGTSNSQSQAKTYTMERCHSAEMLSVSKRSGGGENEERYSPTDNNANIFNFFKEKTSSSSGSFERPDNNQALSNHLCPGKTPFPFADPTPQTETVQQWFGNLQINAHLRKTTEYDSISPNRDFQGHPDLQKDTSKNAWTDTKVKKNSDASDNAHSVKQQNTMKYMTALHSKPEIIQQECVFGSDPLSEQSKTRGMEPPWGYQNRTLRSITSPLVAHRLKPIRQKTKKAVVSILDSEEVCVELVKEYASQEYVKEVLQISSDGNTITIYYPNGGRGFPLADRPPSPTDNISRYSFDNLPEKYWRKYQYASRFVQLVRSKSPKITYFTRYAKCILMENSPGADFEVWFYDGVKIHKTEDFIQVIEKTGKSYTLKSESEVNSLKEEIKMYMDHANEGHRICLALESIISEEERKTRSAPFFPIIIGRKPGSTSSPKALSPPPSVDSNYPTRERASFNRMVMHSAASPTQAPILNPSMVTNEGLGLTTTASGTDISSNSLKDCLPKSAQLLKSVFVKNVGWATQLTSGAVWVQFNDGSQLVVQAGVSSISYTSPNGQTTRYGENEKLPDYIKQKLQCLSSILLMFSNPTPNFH
# RET = target: T3, RET (Homo sapiens, UniProt P07949); assay: KINOMEscan competitive binding; conditions: n=1, read-out: Percent inhibition, RET
# T3 construct: purchased DiscoverX (KINOMEscan)
# T3 sequence (P07949 29-1114): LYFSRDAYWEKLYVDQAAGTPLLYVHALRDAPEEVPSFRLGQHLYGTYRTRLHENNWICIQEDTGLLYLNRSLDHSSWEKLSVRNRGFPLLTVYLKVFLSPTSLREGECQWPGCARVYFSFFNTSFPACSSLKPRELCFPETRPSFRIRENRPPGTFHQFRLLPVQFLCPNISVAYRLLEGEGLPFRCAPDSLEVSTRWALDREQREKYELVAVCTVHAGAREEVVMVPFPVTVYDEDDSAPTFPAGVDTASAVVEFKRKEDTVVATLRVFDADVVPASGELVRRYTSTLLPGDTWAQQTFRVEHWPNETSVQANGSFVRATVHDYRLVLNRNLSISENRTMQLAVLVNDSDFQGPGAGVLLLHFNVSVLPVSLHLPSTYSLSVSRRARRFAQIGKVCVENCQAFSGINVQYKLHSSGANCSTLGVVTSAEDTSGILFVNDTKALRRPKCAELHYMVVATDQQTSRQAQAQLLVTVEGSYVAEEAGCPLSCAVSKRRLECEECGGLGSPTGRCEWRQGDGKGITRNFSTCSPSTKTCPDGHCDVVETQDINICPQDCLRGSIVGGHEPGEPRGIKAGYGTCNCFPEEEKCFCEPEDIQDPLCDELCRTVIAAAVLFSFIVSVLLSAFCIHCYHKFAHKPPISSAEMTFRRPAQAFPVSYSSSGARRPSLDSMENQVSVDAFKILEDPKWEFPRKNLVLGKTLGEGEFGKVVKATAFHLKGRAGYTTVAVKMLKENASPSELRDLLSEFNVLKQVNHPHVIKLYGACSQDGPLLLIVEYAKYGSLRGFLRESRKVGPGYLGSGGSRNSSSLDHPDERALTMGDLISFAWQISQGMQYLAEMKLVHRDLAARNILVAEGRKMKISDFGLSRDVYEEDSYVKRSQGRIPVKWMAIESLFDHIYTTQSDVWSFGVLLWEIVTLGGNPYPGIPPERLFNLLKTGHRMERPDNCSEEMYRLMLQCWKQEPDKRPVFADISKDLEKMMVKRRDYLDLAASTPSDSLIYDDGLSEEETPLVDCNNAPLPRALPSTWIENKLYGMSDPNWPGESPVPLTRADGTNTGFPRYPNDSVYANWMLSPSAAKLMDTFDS
# ROS1 = target: T4, ROS1 (Homo sapiens, UniProt P08922); assay: KINOMEscan competitive binding; conditions: n=1, read-out: Percent inhibition, ROS1
# T4 construct: purchased DiscoverX (KINOMEscan)
# STK16 = target: T5, STK16 (Homo sapiens, UniProt O75716); assay: KINOMEscan competitive binding; conditions: n=1, read-out: Percent inhibition, STK16
# T5 construct: purchased DiscoverX (KINOMEscan)
# T5 sequence (O75716 whole entry): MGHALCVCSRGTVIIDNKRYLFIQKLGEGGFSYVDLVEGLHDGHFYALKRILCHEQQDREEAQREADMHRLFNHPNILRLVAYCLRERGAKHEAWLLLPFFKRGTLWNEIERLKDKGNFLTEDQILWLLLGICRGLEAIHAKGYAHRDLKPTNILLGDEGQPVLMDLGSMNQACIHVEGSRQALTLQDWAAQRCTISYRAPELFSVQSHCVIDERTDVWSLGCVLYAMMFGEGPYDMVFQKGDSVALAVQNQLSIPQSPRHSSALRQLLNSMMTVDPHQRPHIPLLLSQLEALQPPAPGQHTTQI
# STK33 = target: T6, STK33 (Homo sapiens, UniProt Q9BYT3); assay: KINOMEscan competitive binding; conditions: n=1, read-out: Percent inhibition, STK33
# T6 construct: purchased DiscoverX (KINOMEscan)
# T6 sequence (Q9BYT3 whole entry): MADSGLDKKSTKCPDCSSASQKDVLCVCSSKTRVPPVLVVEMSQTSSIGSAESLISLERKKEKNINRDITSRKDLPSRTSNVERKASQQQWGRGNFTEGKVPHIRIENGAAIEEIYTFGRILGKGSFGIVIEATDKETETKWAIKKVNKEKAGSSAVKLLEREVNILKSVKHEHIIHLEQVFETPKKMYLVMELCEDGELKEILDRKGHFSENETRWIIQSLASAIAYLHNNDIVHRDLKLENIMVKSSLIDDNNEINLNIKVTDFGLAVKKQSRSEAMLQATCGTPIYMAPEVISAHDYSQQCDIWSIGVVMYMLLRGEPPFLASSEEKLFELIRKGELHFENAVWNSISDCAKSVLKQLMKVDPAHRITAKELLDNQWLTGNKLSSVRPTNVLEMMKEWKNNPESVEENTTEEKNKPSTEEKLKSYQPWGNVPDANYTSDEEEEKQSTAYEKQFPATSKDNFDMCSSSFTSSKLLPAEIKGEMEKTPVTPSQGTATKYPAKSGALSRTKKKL
# SYK = target: T7, SYK (Homo sapiens, UniProt P43405); assay: KINOMEscan competitive binding; conditions: n=1, read-out: Percent inhibition, SYK
# T7 construct: purchased DiscoverX (KINOMEscan)
# TLK2 = target: T8, TLK2 (Homo sapiens, UniProt Q86UE8); assay: KINOMEscan competitive binding; conditions: n=1, read-out: Percent inhibition, TLK2
# T8 construct: purchased DiscoverX (KINOMEscan)
# T8 sequence (Q86UE8 whole entry): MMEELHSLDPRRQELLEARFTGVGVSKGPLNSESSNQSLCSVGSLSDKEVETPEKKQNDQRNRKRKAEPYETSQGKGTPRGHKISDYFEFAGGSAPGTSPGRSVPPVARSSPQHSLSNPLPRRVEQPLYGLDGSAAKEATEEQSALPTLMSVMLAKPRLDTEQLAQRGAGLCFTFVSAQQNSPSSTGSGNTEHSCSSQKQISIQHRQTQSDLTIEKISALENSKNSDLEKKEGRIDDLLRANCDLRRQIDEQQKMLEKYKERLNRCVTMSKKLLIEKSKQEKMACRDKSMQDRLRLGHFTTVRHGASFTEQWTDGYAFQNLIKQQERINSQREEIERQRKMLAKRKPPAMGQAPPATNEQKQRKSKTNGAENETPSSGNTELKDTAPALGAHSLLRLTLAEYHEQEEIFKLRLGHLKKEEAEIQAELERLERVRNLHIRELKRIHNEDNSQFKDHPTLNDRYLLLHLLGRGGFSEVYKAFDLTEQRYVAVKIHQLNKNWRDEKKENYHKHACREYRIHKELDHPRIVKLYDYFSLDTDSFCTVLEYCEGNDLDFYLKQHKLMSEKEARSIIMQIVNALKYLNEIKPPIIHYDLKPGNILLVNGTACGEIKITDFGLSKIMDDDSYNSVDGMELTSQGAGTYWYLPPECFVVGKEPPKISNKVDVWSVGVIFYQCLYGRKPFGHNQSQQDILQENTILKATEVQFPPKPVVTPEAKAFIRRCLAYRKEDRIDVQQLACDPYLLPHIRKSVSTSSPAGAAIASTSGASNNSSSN
# TRKB = target: T9, TRKB (Homo sapiens, UniProt Q16620); assay: KINOMEscan competitive binding; conditions: n=1, read-out: Percent inhibition, TRKB
# T9 construct: purchased DiscoverX (KINOMEscan)
# T9 sequence (Q16620 32-822): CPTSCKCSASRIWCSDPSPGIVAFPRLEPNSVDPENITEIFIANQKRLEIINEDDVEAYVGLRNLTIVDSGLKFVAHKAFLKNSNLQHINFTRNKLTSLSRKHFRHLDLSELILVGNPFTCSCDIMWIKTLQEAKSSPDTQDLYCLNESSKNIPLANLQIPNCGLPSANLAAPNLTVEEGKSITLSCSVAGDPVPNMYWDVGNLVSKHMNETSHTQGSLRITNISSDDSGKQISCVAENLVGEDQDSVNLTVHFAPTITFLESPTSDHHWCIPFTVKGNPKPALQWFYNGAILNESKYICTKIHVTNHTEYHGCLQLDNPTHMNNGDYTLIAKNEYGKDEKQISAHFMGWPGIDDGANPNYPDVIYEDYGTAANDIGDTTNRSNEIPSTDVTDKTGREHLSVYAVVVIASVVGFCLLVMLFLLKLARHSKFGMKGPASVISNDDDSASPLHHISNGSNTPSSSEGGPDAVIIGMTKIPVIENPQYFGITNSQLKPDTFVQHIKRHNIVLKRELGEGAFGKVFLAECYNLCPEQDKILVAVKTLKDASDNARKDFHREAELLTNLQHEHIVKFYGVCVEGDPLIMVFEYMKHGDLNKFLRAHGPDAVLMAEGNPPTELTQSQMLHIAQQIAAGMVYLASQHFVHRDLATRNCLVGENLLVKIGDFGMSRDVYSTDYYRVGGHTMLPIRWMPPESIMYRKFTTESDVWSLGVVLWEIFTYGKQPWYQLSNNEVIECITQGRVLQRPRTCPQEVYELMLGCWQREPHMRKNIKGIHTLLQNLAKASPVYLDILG
# TRKC = target: T10, TRKC (Homo sapiens, UniProt Q16288); assay: KINOMEscan competitive binding; conditions: n=1, read-out: Percent inhibition, TRKC
# T10 construct: purchased DiscoverX (KINOMEscan)
# T10 sequence (Q16288 32-839): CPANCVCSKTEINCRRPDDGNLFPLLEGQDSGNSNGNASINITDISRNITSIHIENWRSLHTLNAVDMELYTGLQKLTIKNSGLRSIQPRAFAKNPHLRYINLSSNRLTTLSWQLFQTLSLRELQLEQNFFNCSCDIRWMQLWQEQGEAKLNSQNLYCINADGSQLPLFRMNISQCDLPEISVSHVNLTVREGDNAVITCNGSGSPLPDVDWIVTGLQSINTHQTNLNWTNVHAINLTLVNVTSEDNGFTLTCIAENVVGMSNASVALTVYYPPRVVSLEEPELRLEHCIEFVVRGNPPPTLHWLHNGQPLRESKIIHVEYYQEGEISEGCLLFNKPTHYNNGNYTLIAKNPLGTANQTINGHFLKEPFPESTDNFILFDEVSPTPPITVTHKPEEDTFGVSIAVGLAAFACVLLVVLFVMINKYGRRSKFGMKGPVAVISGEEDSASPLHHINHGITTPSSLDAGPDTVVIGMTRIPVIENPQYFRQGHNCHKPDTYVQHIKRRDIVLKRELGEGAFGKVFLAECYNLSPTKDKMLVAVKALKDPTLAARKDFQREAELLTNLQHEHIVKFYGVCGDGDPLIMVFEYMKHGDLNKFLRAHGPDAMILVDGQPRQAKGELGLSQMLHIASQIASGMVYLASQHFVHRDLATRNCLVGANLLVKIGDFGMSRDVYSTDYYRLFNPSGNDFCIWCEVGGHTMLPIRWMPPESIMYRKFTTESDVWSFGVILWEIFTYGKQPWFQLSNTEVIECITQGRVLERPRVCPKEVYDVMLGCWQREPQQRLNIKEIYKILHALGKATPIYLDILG
# TYRO3 = target: T11, TYRO3 (Homo sapiens, UniProt Q06418); assay: KINOMEscan competitive binding; conditions: n=1, read-out: Percent inhibition, TYRO3
# T11 construct: purchased DiscoverX (KINOMEscan)
# T11 sequence (Q06418 41-890): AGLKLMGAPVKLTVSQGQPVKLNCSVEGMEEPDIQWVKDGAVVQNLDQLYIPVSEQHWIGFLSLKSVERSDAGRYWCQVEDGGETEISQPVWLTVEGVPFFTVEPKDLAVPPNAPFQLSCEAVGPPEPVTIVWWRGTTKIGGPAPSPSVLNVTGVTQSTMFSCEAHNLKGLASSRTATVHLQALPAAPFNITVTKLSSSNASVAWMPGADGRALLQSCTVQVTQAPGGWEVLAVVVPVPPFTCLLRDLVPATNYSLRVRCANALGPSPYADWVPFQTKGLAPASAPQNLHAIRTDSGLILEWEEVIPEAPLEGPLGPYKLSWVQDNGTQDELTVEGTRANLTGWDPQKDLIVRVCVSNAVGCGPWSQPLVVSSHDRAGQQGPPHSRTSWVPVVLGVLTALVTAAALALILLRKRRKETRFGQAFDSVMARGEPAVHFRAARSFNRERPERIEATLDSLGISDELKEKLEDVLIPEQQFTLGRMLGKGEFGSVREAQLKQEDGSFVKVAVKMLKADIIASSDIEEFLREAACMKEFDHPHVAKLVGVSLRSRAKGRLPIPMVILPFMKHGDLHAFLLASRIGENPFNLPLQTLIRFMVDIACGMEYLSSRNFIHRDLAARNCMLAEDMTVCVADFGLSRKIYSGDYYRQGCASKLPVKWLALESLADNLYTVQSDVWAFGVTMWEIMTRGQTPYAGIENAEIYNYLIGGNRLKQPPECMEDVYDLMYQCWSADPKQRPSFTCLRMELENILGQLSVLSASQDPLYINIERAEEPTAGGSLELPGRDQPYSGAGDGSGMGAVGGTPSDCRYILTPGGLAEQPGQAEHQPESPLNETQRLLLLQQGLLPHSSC
Structure (SMILES),Selectivity index (HepG2 cells),inhibition at 10 µM (PCTK1),inhibition at 10 µM (PLK4),inhibition at 10 µM (RET),inhibition at 10 µM (ROS1),inhibition at 10 µM (STK16),inhibition at 10 µM (STK33),inhibition at 10 µM (SYK),inhibition at 10 µM (TLK2),inhibition at 10 µM (TRKB),inhibition at 10 µM (TRKC),inhibition at 10 µM (TYRO3)
CN1CCN(c2ccc(Nc3nccc(-c4cnn5ncccc45)n3)cc2C#N)CC1 [Compound 1],>100,100%,99.7%,89.8%,91.9%,100%,98.1%,78.3%,98.7%,96.5%,82.8%,70.2%
COc1ccc(Nc2nccc(-c3cnn4ncccc34)n2)cc1 [Compound 2],>100,100%,99%,0%,90.3%,99.7%,68.9%,80.9%,0%,0%,0%,0%
Cc1ccc(O)cc1Nc1ccnc(Nc2cccc(C(N)=O)c2)n1 [Compound 3],–,0%,95.2%,100%,0%,99.9%,89.1%,–,0%,0%,0%,100%
Cc1ccc(O)cc1N(C)c1ccnc(Nc2cccc(S(N)(=O)=O)c2)n1 [Compound 4],–,96.9%,99.4%,100%,90%,99.8%,85.7%,98.7%,0%,91.7%,90%,100%
Fc1cccc(COc2ccc(Nc3ncnc4c3CN(CCN3CCOCC3)CC4)cc2Cl)c1 [Compound 6],>100,0%,0%,0%,0%,0%,0%,0%,0%,0%,0%,0%
COc1cc(Nc2nccc(-c3sc(N)nc3-c3cccc(NC(=O)c4c(F)cccc4F)c3)n2)cc(OC)c1OC [Compound 7],14,0%,99.8%,100%,80.6%,98.7%,0%,98.9%,0%,0%,0%,100%
C[C@@H](Oc1cc(-c2cnc3ccccn23)sc1C(N)=O)c1ccccc1Cl [Compound 8],–,0%,76.4%,0%,0%,0%,0%,0%,0%,0%,0%,0%
c1ccc(COc2cccc(-c3ccnc4[nH]ccc34)c2)cc1 [Compound 9],–,0%,0%,0%,0%,0%,0%,0%,0%,0%,0%,0%
Clc1ccc(Nc2ncc(-c3ccccc3)s2)cc1 [Compound 10],–,0%,0%,0%,0%,0%,0%,0%,0%,0%,0%,0%
Nc1ncc2c(-c3ccncc3)c[nH]c2n1 [Compound 11],>100,78.2%,84.4%,0%,0%,0%,0%,75.9%,0%,0%,0%,0%
